This note sets out measurements from patent US20240150290A1, “HETEROCYCLIC P2Y14 RECEPTOR ANTAGONISTS” (priority 2021, published 2024).

Read-outs that look alike come from different tables or passages of the source.

The assay deals with T1, hP2Y14R (Homo sapiens, UniProt Q15391).
T1 construct: expressed in transfected cells; host or cells: CHO cells
T1 sequence (Q15391 1-338): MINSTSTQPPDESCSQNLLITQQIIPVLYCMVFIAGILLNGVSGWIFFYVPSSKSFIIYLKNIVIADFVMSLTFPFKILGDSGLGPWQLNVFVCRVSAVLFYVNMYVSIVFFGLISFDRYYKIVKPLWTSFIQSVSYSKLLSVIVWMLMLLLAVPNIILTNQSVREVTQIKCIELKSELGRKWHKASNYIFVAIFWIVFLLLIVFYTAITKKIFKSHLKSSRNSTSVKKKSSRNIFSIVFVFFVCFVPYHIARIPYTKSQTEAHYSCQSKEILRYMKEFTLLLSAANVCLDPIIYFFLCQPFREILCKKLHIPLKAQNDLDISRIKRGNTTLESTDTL
Put plainly: Inhibition of fluorescent antagonist binding in whole hP2Y14R-expressing CHO cells (flow cytometry).

Setting [1] is: Example 5 table, whole cell fluorescent binding assay, read-out: IC50.
Where [2] appears, read: Table 1, fluorescent antagonist 2, hP2Y14R-CHO cells, 3-4 determinations, read-out: IC50, hP2Y14R (μM, mean ± SEM).
Where [3] appears, read: Table 2, whole hP2Y14R-CHO cells, 20 nM fluorescent antagonist 3, mean+SEM, n = 3-6, read-out: IC50.

Take `O=C(O)c1cc(-c2ccc(C3C[C@H]4CNC[C@@H]4C3)cc2)c2ccc(-c3ccc(C(F)(F)F)cc3)cc2c1` (racemic) [Compound 413, rac-4-(4-((3aR,6aR)-Octahydrocyclopenta[c]pyrrol-5-yl)phenyl)-7-(4-(trifluoromethyl)phenyl)-2-naphthoic acid]: under “read-out: IC50”, the IC50 was 0.032 ± 0.0112 µM.
For `N[C@H]1C[C@@H](CO)C[C@@H]1c1ccc(-c2cc(C(=O)O)cc3cc(-c4ccc(C(F)(F)F)cc4)ccc23)cc1` [Compound 137, 4-(4-((1R,2S,4S)-2-Amino-4-(hydroxymethyl)cyclopentyl)phenyl)-7-(4-(trifluoromethyl)phenyl)-2-naphthoic acid], the IC50 (Table 6, fluorescent hP2Y14R antagonist (3), read-out: hP2Y14R, IC50) worked out at 0.125 ± 0.045 µM.
On to “Mixture of 4-(4-(2,3,6,7-Tetrahydro-1H-azepin-4-yl)phenyl)-7-(4-(trifluoromethyl)phenyl)-2-naphthoic acid and 4-(4-(2,5,6,7-tetrahydro-1H-azepin-4-yl)phenyl)-7-(4-(trifluoromethyl)phenyl)-2-naphthoic acid [Compound 427]”, for which the IC50 under setting [1] is 0.0119 ± 0.0036 µM.
Consider `NCCCc1ccc(-c2cc(C(=O)O)cc(-n3cc(-c4ccc(C(F)(F)F)cc4)nn3)c2)cc1` [Compound 18, 4′-(3-Aminopropyl)-5-(4-(4-(trifluoromethyl)phenyl)-1H-1,2,3-triazol-1-yl)-[1,1′-biphenyl]-3-carboxylic acid], for which the IC50 under setting [2] was determined as 0.292 ± 0.067 µM.
As for `O=C(O)c1cc(-c2ccc([C@H]3C[C@H]4C[C@@H]3C(=O)N4)cc2)c2ccc(-c3ccc(C(F)(F)F)cc3)cc2c1` [Compound 119, 4-(4-((1S,4S,5S)-3-Oxo-2-azabicyclo[2.2.1]heptan-5-yl)phenyl)-7-(4-(trifluoromethyl)phenyl)-2-naphthoic acid], the IC50 under setting [3] was 0.101 ± 0.07 µM.
As for `NCC1(c2ccc(-c3cc(C(=O)O)cc(-n4cc(-c5ccc(C(F)(F)F)cc5)nn4)c3)cc2)CC1` [Compound 23, 4′-(1-(Aminomethyl)cyclopropyl)-5-(4-(4-(trifluoromethyl)phenyl)-1H-1,2,3-triazol-1-yl)-[1,1′-biphenyl]-3-carboxylic acid], under setting [2], the IC50 was found to be 8.91 ± 0.75 µM.
Still for that read-out and setting: the same measure for `NC1(c2ccc(-c3cc(C(=O)O)cc(-n4cc(-c5ccc(C(F)(F)F)cc5)nn4)c3)cc2)CC1` [Compound 22, 4′-(1-Aminocyclopropyl)-5-(4-(4-(trifluoromethyl)phenyl)-1H-1,2,3-triazol-1-yl)-[1,1′-biphenyl]-3-carboxylic acid]: 14.1 ± 0.9 µM; for `CC(C)(C)OC(=O)NCC1(c2ccc(-c3cc(C(=O)O)cc(-n4cc(-c5ccc(C(F)(F)F)cc5)nn4)c3)cc2)CC1` [Compound 24, 4′-(1-(((tert-Butoxycarbonyl)amino)methyl)cyclopropyl)-5-(4-(4-(trifluoromethyl)phenyl)-1H-1,2,3-triazol-1-yl)-[1,1′-biphenyl]-3-carboxylic acid]: 18.8 ± 2 µM; for `NC(=O)Cc1ccc(-c2cc(C(=O)O)cc(-n3cc(-c4ccc(C(F)(F)F)cc4)nn3)c2)cc1` [Compound 16, 4′-(2-Amino-2-oxoethyl)-5-(4-(4-(trifluoromethyl)phenyl)-1H-1,2,3-triazol-1-yl)-[1,1′-biphenyl]-3-carboxylic acid]: 1.29 ± 0.32 µM.
As for `O=C(O)c1cc(-c2ccc(C3(O)CCCNCCC3)cc2)c2ccc(-c3ccc(C(F)(F)F)cc3)cc2c1` [Compound 430, 4-(4-(5-hydroxyazocan-5-yl)phenyl)-7-(4-(trifluoromethyl)phenyl)-2-naphthoic acid], the IC50 under setting [1] stood at 1.78 ± 0.44 µM.
Consider `O=C(O)c1cc(-c2ccc(C3=C[C@H]4CNC[C@@H]4C3)cc2)c2ccc(-c3ccc(C(F)(F)F)cc3)cc2c1` (racemic) [Compound 412, rac-4-(4-((3aR,6aR)-1,2,3,3a,4,6a-Hexahydrocyclopenta[c]pyrrol-5-yl)phenyl)-7-(4-(trifluoromethyl)phenyl)-2-naphthoic acid], for which, where the note is “read-out: IC50”, the 50% inhibitory concentration (IC50) worked out at 0.0166 ± 0.0032 µM.
In the case of `O=C(O)c1cc(-c2ccc(-c3cc(CCO)on3)cc2)cc(-n2cc(-c3ccc(C(F)(F)F)cc3)nn2)c1` [Compound 30, 4′-(5-(2-Hydroxyethyl)isoxazol-3-yl)-5-(4-(4-(trifluoromethyl)phenyl)-1H-1,2,3-triazol-1-yl)-[1,1′-biphenyl]-3-carboxylic acid], under setting [2], the half-maximal inhibitory concentration (IC50) worked out at 0.389 ± 0.042 µM.
Turning to `CS(=O)(=O)N1C[C@H]2C[C@@H]1C[C@@H]2c1ccc(-c2cc(C(=O)O)cc3cc(-c4ccc(C(F)(F)F)cc4)ccc23)cc1` [Compound 123], the IC50 under setting [3] is 0.497 ± 0.092 µM.
`O=C(O)c1ccc(-c2cc(C(=O)O)cc(-n3cc(-c4ccc(C(F)(F)F)cc4)nn3)c2)cc1` [Compound 13, 5-(4-(4-(Trifluoromethyl)phenyl)-1H-1,2,3-triazol-1-yl)-[1,1′-biphenyl]-3,4′-dicarboxylic acid]: the IC50 under setting [2] worked out at 0.632 ± 0.023 µM.
The same measure, in the same setting: the same measure for `Nc1ccc(-c2cc(C(=O)O)cc(-n3cc(-c4ccc(C(F)(F)F)cc4)nn3)c2)cc1` [Compound 7, 4′-Amino-5-(4-(4-(trifluoromethyl)phenyl)-1H-1,2,3-triazol-1-yl)-[1,1′-biphenyl]-3-carboxylic acid]: 1.48 ± 0.16 µM.
As to `O=C(O)c1cc(-c2ccc(C3CCCNCC3)cc2)c2ccc(-c3ccc(C(F)(F)F)cc3)cc2c1` (centres unmarked) [Compound 426, 4-(4-(Azepan-4-yl)phenyl)-7-(4-(trifluoromethyl)phenyl)-2-naphthoic acid], the IC50 under setting [1] is 0.00958 ± 0.00514 µM.
`CC(=O)Nc1ccc(-c2cc(C(=O)O)cc(-n3cc(-c4ccc(C(F)(F)F)cc4)nn3)c2)cc1` [Compound 8, 4′-Acetamido-5-(4-(4-(trifluoromethyl)phenyl)-1H-1,2,3-triazol-1-yl)-[1,1′-biphenyl]-3-carboxylic acid]: the IC50 under setting [2] was found to be 0.811 ± 0.095 µM.
In the case of `O=C(O)c1cc(-c2ccc(C3CNC3)cc2)c2ccc(-c3ccc(C(F)(F)F)cc3)cc2c1` [Compound 405, 4-(4-(Azetidin-3-yl)phenyl)-7-(4-(trifluoromethyl)phenyl)-2-naphthoic acid], under setting [1], the half-maximal inhibitory concentration (IC50) came to 0.0659 ± 0.0193 µM.
For the molecule `O=C(O)c1cc(-c2ccc([C@H]3C[C@H]4C[C@@H]3NC4=O)cc2)c2ccc(-c3ccc(C(F)(F)F)cc3)cc2c1` [Compound 122, 4-(4-((1S,4S,6R)-3-Oxo-2-azabicyclo[2.2.1]heptan-6-yl)phenyl)-7-(4-(trifluoromethyl)phenyl)-2-naphthoic acid], under setting [3], the IC50 was determined as 0.0586 ± 0.0129 µM.
On to `O=C(O)c1cc(-c2ccc(C3(O)CC4(CNC4)C3)cc2)c2ccc(-c3ccc(C(F)(F)F)cc3)cc2c1` [Compound 408, 4-(4-(6-Hydroxy-2-azaspiro[3.3]heptan-6-yl)phenyl)-7-(4-(trifluoromethyl)phenyl)-2-naphthoic acid], for which the IC50 under setting [1] is 0.0208 ± 0.0056 µM.
With `NC1(c2ccc(-c3cc(C(=O)O)cc(-n4cc(-c5ccc(C(F)(F)F)cc5)nn4)c3)cc2)CCC1` [Compound 25, 4′-(1-Aminocyclobutyl)-5-(4-(4-(trifluoromethyl)phenyl)-1H-1,2,3-triazol-1-yl)-[1,1′-biphenyl]-3-carboxylic acid], the IC50 under setting [2] stood at 2 ± 0.18 µM.
As for `O=C(O)c1cc(-c2ccc([C@@]3(O)[C@@H]4CNC[C@H]3C4)cc2)c2ccc(-c3ccc(C(F)(F)F)cc3)cc2c1` [Compound 425, 4-(4-((1R,5S,6r)-6-Hydroxy-3-azabicyclo[3.1.1]heptan-6-yl)phenyl)-7-(4-(trifluoromethyl)phenyl)-2-naphthoic acid], the IC50 under setting [1] came to 0.00592 ± 0.00055 µM.
For the molecule `O=C(O)c1cc(-c2ccc(C3=CC4(CNC4)C3)cc2)c2ccc(-c3ccc(C(F)(F)F)cc3)cc2c1` [Compound 407, 4-(4-(2-Azaspiro[3.3]hept-5-en-6-yl)phenyl)-7-(4-(trifluoromethyl)phenyl)-2-naphthoic acid], the IC50 under setting [1] is 0.00969 ± 0.00356 µM.

As a reminder, the IC50 is the point on the concentration scale where inhibition reaches its midpoint.
